“And” between values parts separate entries of the source, which are not always exact repeats. Identical values can stand only once. Marks after values point to notes of the source that are not given here.
Legend:
[1] = target: human A1 receptors (Homo sapiens (Human), UniProt P30542); assay: Binding assay at human A1 receptors (Example 2); conditions: CHO cells expressing human A1AR; radioligand [3H]CCPA or [3H]R-PIA; n = 3-5; read-out: Affinity (Ki, nM) A1
[2] = tested on: seizures induced by 6 Hz corneal stimulation in mice; assay: 6 Hz minimal clonic seizure test; assay type: in vivo; conditions: mice, i.p., measured at 1 h post injection
Procedure: (§1) For the MES and 6 Hz tests, a drop of anesthetic/electrolyte solution (0.5% tetracaine hydrochloride in 0.9% saline) was applied to the eyes of each animal prior to placement of the corneal electrodes. The electrical stimulus in the MES test was 50 mA, 60 Hz, for mice. Abolition of the hindleg tonic extensor component of the seizure was used as the endpoint.
The ability of the test substance to prevent seizures induced by 6 Hz corneal stimulation (32 mA, 3 sec duration) in mice was evaluated at a convulsive current that evokes a seizure in 97% of the population tested (CC97). Six Hz seizures are characterized by a minimal clonic phase that is followed by stereotyped, automatistic behaviors described originally as being similar to the aura of human patients with partial seizures. Toman, J. E. et al., Tex. Rep.
Animals not displaying this behavior were considered protected.

[3] = tested on: MES seizures in mice; assay: Maximal electroshock (MES) seizure test; assay type: in vivo; conditions: i.p., 1 mg/kg
Procedure: The electrical tests used were the maximal electroshock (MES) seizure test, the 6 Hz minimal clonic seizure test, and the corneal kindled mouse test. The chemical test was the s.c. metrazol seizure tests. Time of peak effect (TPE) is deduced from data generated in initial qualitative test procedures. Five groups of 4 animals each are administered the test compound, and each group is tested at one of five different time intervals: ¼, ½, 1, 2 and 4 h. The time point at which the compound produces the most activity/toxicity was chosen as TPE.
as §1

[4] = tested on: s.c. metrazol seizures in mice; assay: s.c. metrazol (scMET) seizure test; assay type: in vivo; conditions: i.p., 1 mg/kg
Description: In vivo anticonvulsant activity was established by both electrical and chemoconvulsant seizure tests which have been described previously. White, H. S., et al., Ital. J. Neurol. […] White, H. S. et al., Antiepileptic Drugs ([…].; Meldrum, B. S. ed), 1995, pp 99-110, Raven Press, New York.; and Smith, M., et al., Neurotherapeutics 2007, 4, 12-17. The electrical tests used were the maximal electroshock (MES) seizure test, the 6 Hz minimal clonic seizure test, and the corneal kindled mouse test. The chemical test was the s.c. metrazol seizure tests. Time of peak effect (TPE) is deduced from data generated in initial qualitative test procedures. […] The time point at which the compound produces the most activity/toxicity was chosen as TPE.

[5] = tested on: mice; assay: Minimal behavioral toxicity test, rotorod procedure; conditions: i.p., measured at 1 h post injection
[6] = target: human A2A receptors (Homo sapiens (Human), UniProt P29274); assay: Binding assay at human A2A receptors (Example 2); conditions: HEK cells expressing human A2AAR; radioligand [3H]CGS21680; n = 3-5; read-out: Affinity (Ki, nM) A2A
[7] = target: human A3AR (Homo sapiens (Human), UniProt P0DMS8); assay: [35S]GTPγS binding assay, membranes of CHO cells expressing human A3AR; assay type: biochemical; conditions: stimulation measured by [35S]GTPγS binding assay
[8] = target: T1, hA1AR (Homo sapiens (Human), UniProt P30542); assay: Radioligand membrane binding at hA1AR (Example 6); conditions: CHO cells expressing hA1AR; [3H]R-PIA; n = 3-5; read-out: Affinity Ki, nM A1
Procedure: (§2) In addition, 800 μg/mL Geneticin and 500 μg/mL hygromycin were added to the A2A media and to the A1 and A3 media, respectively. […] The concentration of protein was determined using a BCA Protein Assay Kit from Pierce Biotechnology (Rockford, Ill.).
(§3) Radioligand binding assays at A1, A2A, and A3ARs were performed according to the procedures described previously.
(§4) All of the filters were washed 3 times with Tris-HCl, pH 7.5. […] Filters for A3AR binding were counted using a PerkinElmer Cobra II γ-counter.
(§5) Binding and functional parameters were calculated using Prism 5.0 software (GraphPAD, San Diego, Calif., USA). IC50 values obtained from competition curves were converted to Ki values using the Cheng-Prusoff equation. Data were expressed as mean±standard error.

[9] = target: hA2AAR (Homo sapiens (Human), UniProt P29274); assay: Radioligand membrane binding at hA2AAR (Example 6); conditions: for Ki: HEK293 cells expressing hA2AAR, [3H]CGS21680, n = 3-5, read-out: Affinity Ki, nM A2A
Procedure: as §2, §3, §4, §5

[10] = target: hA3AR (Homo sapiens (Human), UniProt P0DMS8); assay: Radioligand membrane binding at hA3AR (Example 6); conditions: CHO cells expressing hA3AR; [125I]I-AB-MECA; n = 3-5; read-out: Affinity Ki, nM A3
[11] = target: T1, hA1AR; assay: A1AR functional assay, inhibition of forskolin-stimulated cyclic AMP production in AR-transfected CHO cells; assay type: cell-based; conditions: for inhibition at 10 µM: CHO, read-out: % Inhibition, cyclic AMP A1

human A1 receptors, sequence (P30542 whole entry): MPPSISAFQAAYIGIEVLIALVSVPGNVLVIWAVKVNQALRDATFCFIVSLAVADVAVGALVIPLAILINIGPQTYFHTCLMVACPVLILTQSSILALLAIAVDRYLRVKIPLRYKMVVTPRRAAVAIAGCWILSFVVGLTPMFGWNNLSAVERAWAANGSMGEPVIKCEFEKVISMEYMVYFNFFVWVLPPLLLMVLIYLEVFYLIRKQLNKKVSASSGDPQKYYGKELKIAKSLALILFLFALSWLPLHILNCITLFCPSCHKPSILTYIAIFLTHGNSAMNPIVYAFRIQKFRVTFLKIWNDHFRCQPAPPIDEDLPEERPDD
T1 sequence (P30542 whole entry): as above
human A3AR, sequence (P0DMS8 whole entry): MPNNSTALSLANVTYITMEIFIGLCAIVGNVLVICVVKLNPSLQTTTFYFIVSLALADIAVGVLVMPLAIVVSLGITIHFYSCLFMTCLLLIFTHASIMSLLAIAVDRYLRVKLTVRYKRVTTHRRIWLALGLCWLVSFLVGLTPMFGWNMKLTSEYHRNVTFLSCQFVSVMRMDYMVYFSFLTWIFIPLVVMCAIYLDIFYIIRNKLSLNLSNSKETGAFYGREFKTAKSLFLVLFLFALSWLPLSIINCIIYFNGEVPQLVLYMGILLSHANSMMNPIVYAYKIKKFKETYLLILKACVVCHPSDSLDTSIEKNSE
hA3AR, sequence (P0DMS8 whole entry): as above
hA2AAR, sequence (P29274 whole entry): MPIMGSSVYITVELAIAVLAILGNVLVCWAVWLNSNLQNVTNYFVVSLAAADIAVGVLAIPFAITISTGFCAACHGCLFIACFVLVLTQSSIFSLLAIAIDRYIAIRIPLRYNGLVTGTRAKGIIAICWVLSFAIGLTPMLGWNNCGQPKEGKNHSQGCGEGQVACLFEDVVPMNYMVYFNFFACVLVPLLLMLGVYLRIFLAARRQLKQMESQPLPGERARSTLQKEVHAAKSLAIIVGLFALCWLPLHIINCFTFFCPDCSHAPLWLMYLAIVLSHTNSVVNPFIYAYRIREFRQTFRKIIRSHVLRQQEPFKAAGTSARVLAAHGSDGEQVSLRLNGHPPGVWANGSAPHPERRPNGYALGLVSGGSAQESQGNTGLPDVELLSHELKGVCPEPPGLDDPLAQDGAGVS
human A2A receptors, sequence (P29274 whole entry): as above

Ki [8] [nM] | Ki [9] [nM] | Ki [10] [nM] | inhibition at 10 µM [11] [%] | Structure (SMILES) | also measured
– | – | – | – | O[C@@H]1[C@H](O)[C@@H]2C[C@@H]2[C@H]1n1cnc2c(NCc3cccc(Br)c3)nc(Cl)nc21 [Compound 9b, (1′R,2′R,3′S,4′R,5′S)-4′-[2-Chloro-6-(3-bromobenzylamino)purine]-2′,3′-O-dihydroxybicyclo-[3.1.0]hexane] | Ki [1]: 1760 ± 1010 nM
– | – | – | – | OC[C@H]1O[C@@H](n2cnc3c(NC4CCCC4)nc(Cl)nc32)[C@H](O)[C@@H]1O [Compound 235b, 2-chloro-N^6-cyclopentyladenosine] | ED50 ([2]; Mus musculus, ip, read-out: 6 Hz model ED50): 0.12 mg/kg; 6 Hz model ED50 [2]: 0.12^c mg/kg; MES model, number of animals protected from convulsions [3]: 1 out of 4 at; scMET model, number of animals protected from convulsions [4]: 1 out of 4; Behavioral toxicity TD50 [5]: 0.84 mg/kg and 0.84^c mg/kg
– | – | – | – | COc1ccc(OC)c(CNc2nc(Cl)nc3c2ncn3[C@H]2[C@H](O)[C@H](O)[C@@H]3C[C@@H]32)c1 [Compound 11b, (1′R,2′R,3′S,4′R,5′S)-4′-[2-Chloro-6-(2,5-dimethoxybenzylamino)purine]-2′,3′-O-dihydroxybicyclo-[3.1.0]hexane] | Ki [6]: 2620 ± 730 nM; % Efficacy A3 [7]: 4.6 ± 3.8%
– | – | – | – | COc1ccc(O)c(CNc2nc(Cl)nc3c2ncn3[C@H]2[C@H](O)[C@H](O)[C@@H]3C[C@@H]32)c1 [Compound 12b, (1′R,2′R,3′S,4′R,5′S)-4′-[2-Chloro-6-(2-hydroxy-5-methoxybenzylamino)purine]-2′,3′-O-dihydroxybicyclo-[3.1.0]hexane] | Ki [1]: 1110 ± 300 nM; Ki [6]: 6870 ± 1440 nM; % Efficacy A3 [7]: 0.4 ± 1.3%
– | – | – | – | O[C@@H]1[C@H](O)[C@@H]2C[C@@H]2[C@H]1n1cnc2c(N[C@@H]3C[C@H]3c3ccccc3)nc(Cl)nc21 (relative stereo) [Compound 13b, (1′R,2′R,3′S,4′R,5′S)-4′-[2-Chloro-6-(trans-2-phenylcyclopropylamino)purine]-2′,3′-O-dihydroxybicyclo-[3.1.0]hexane] | % Efficacy A3 [7]: 9.7 ± 4.1%
210 ± 30 | 3700 ± 340 | 12.1 ± 3.4 | 79 ± 18.8 | O[C@@H]1[C@H](O)[C@@H]2C[C@@H]2[C@H]1n1cnc2c(NC3CC3)nc(Cl)nc21 [Compound 108, (1R,2R,3S,4R,5S)-4-(2-Chloro-6-(cyclopropylamino)-9H-purin-9-yl)bicyclo[3.1.0]hexane-2,3-diol] | –
230 ± 30 | 3930 ± 520 | 560 ± 90 | 48.1 ± 10.2 | O[C@@H]1[C@H](O)[C@@H]2C[C@@H]2[C@H]1n1cnc2c(NC3CCCCCC3)nc(Cl)nc21 [Compound 111, (1R,2R,3S,4R,5S)-4-(2-Chloro-6-(cycloheptylamino)-9H-purin-9-yl)bicyclo[3.1.0]hexane-2,3-diol] | –
68.4 ± 8.9 | 4410 ± 1090 | 8.9 ± 1.9 | 81 ± 21.1 | O[C@@H]1[C@H](O)[C@@H]2C[C@@H]2[C@H]1n1cnc2c(NCC3CC3)nc(Cl)nc21 [Compound 119, (1R,2R,3S,4R,5S)-4-(2-Chloro-6-(cyclopropylmethylamino)-9H-purin-9-yl)bicyclo[3.1.0]hexane-2,3-diol] | –
72.2 ± 16.4 | – | 12 ± 1 | 50.5 ± 6.4 | CC(C)Nc1nc(Cl)nc2c1ncn2[C@H]1[C@H](O)[C@H](O)[C@@H]2C[C@@H]21 [Compound 117, (1R,2R,3S,4R,5S)-4-(2-Chloro-6-(isopropylamino)-9H-purin-9-yl)bicyclo[3.1.0]hexane-2,3-diol] | (% inhibition) A2A ([9]; percent inhibition of radioligand binding at 10 μM): (39%)
170 ± 20 | 2550 ± 170 | 550 ± 50 | 24 ± 5.2 | O[C@@H]1[C@H](O)[C@@H]2C[C@@H]2[C@H]1n1cnc2c(N[C@@H](CC3CC3)C3CC3)nc(Cl)nc21 [Compound 219, (1R,2R,3S,4R,5S)-4-(2-Chloro-6-((S)-1,2-dicyclopropylethylamino)-9H-purin-9-yl)bicyclo[3.1.0]hexane-2,3-diol] | –
150 ± 50 | 3650 ± 370 | 1720 ± 140 | 20.8 ± 6.1 | CC(C)[C@H](Nc1nc(Cl)nc2c1ncn2[C@H]1[C@H](O)[C@H](O)[C@@H]2C[C@@H]21)C1CC1 [Compound 215, (1R,2R,3S,4R,5S)-4-(2-Chloro-6-((S)-1-cyclopropyl-2-methyl-propylamino)-9H-purin-9-yl)bicyclo[3.1.0]hexane-2,3-diol] | –
– | – | – | – | O[C@@H]1[C@H](O)[C@@H]2C[C@@H]2[C@H]1n1cnc2c(NCc3cccc(Cl)c3)nc(Cl)nc21 [Compound 8b, (1′R,2′R,3′S,4′R,5′S)-4′-[2-Chloro-6-(3-chlorobenzylamino)purine]-2′,3′-O-dihydroxybicyclo-[3.1.0]hexane] | Ki [1]: 3070 ± 1500 nM; Ki [6]: 4510 ± 910 nM; % Efficacy A3 [7]: 2.9 ± 3.7%

Structure (SMILES) | Ki [8] [nM] | Ki [9] [nM] | Ki [10] [nM] | inhibition at 10 µM [11] [%] | also measured
CC[C@H](Nc1nc(Cl)nc2c1ncn2[C@H]1[C@H](O)[C@H](O)[C@@H]2C[C@@H]21)C1CC1 [Compound 213, (1R,2R,3S,4R,5S)-4-(2-Chloro-6-((S)-1-cyclopropylpropylamino)-9H-purin-9-yl)bicyclo[3.1.0]hexane-2,3-diol] | 150 ± 10 | 4910 ± 430 | 780 ± 70 | 57.9 ± 1.1 | –
O[C@@H]1[C@H](O)[C@@H]2C[C@@H]2[C@H]1n1cnc2c(N[C@H](C3CCC3)C3CC3)nc(Cl)nc21 [Compound 217, (1R,2R,3S,4R,5S)-4-(2-Chloro-6-((S)-cyclopropylcyclobutylmethylamino)-9H-purin-9-yl)bicyclo[3.1.0]hexane-2,3-diol] | 120 ± 40 | 6450 ± 720 | 2790 ± 720 | – | % Inhibition, cyclic AMP A1 ([11]; maximal efficacy at 10 μM, in comparison to effect (100%) of full agonist CPA at 10 μM, n = 3-5): 18.1 ± 6.8%
CC[C@@H](Nc1nc(Cl)nc2c1ncn2[C@H]1[C@H](O)[C@H](O)[C@@H]2C[C@@H]21)C1CC1 [Compound 212, (1R,2R,3S,4R,5S)-4-(2-Chloro-6-((R)-1-cyclopropylpropylamino)-9H-purin-9-yl)bicyclo[3.1.0]hexane-2,3-diol] | 68.1 ± 5 | 3610 ± 500 | 150 ± 2 | 37.3 ± 4.3 | –
